Patent US20060127411A1 (priority 2002, published 2006)

Tests used:
[1] = tested on: IgE antibodies from the serum of patients with atopic eczema; assay type: binding, human
[2] = tested on: IgE antibodies from the serum of patients with atopic eczema; assay type: binding, human; remark: listed apart in the source
[3] = tested on: peripheral blood lymphocytes (PBMC); assay type: cell-based, human
[4] = tested on: peripheral blood lymphocytes (PBMC); assay type: cell-based, human; remark: listed apart in the source

Row | Substance | IgE binding in the dot blot [1] | IgE binding in the immunoblot [2] | further results
1 | QELDYLTRH [Peptide P1] | weak but clearly detectable IgE binding |  | 
2 | V Q T N K K K V T A Q E L D Y L T R H (VQTNKKKVTAQELDYLTRH) [Peptide (c)] |  | the only one to exhibit an IgE binding | 
3 | QEEDFLTLH [Peptide P2] | weak but clearly detectable IgE binding |  | Effect on proliferation of lymphocytes [3]: did not bring to light any significant effects; Intracellular IFNγ production [4]: P1 suppresses the production of IFNγ, a cytokine which mediates a number of immunological functions, more strongly than P2; Intracellular IL-4 production [4]: is stimulated as a function of the dosage; Ratio between IFNγ and IL-4 (IFNγ+ Th1 cells to IL-4+ Th2 cells) [4]: modified by the peptides as a function of the dosage in favour of the IL-4 producing Th2 lymphocytes
4 | S. aureus enterotoxin B [SEB, reference compound] |  | possible to detect specific IgE antibodies against SEB | 
